pIC50: −log10 of the molar value. Where “and” joins values, the source holds several entries; their conditions need not be identical. Identical values can stand only once. Like-named read-outs stand apart in the source and are kept apart here.
Experiments:
[1] = biological target: HsProRS (Homo sapiens, UniProt P07814); assay: TR-FRET ligand displacement assay with tracer MAT379 (CoraFluor-1-Halo and anti-His6 antibody formats); assay type: binding; design: made in house; host or cells: E. coli SoluBL-21; settings: for TR-FRET dose-response, normalized signal (SI Fig 11): individual replicates
[2] = biological target: T1, PfcProRS (Plasmodium falciparum, UniProt Q8I5R7); assay type: binding; settings: single replicates
T1 construct: made in house; host or cells: E. coli SoluBL-21
T1 sequence (Q8I5R7 249-746): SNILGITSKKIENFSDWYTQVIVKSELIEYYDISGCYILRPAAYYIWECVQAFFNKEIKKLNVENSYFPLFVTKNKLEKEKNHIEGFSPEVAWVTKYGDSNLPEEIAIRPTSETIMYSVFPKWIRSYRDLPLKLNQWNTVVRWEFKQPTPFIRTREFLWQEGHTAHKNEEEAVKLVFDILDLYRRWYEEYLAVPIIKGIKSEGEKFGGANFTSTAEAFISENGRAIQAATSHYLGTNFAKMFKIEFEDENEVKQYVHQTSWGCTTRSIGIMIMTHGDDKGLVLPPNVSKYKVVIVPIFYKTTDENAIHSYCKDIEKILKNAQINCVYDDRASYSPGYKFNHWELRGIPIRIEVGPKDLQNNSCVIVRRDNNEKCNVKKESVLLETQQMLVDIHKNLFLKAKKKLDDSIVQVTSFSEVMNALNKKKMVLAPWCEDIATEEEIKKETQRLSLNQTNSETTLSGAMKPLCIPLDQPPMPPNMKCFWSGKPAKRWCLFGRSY

Sequence of HsProRS (P07814 996-1512): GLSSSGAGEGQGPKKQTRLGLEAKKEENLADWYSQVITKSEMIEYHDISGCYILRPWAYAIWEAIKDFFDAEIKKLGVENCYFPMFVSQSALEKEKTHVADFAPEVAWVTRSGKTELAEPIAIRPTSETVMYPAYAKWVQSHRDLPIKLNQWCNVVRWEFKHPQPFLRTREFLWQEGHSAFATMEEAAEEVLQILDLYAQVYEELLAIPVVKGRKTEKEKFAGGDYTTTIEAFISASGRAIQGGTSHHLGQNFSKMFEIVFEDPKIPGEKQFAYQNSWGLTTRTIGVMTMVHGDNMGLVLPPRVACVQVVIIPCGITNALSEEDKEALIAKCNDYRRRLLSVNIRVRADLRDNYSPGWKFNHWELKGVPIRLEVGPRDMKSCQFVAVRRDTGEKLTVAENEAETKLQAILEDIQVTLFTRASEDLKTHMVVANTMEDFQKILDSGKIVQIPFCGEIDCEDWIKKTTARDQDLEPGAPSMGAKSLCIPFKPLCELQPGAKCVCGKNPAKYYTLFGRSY

NCC1CCN(C(=O)Nc2nccnc2C(=O)NC2Cc3ccccc3C2)CC1 [compound 10]
pIC50 [1]: < 5.00
Kd ([1]; HsProRS (KD [nM]) + 100 μM proline mean, + 100 μM proline): 1360 nM
normalized TR-FRET ligand displacement signal, dose-response replicates (SI Fig 6) ([1]; Log[inhibitor] (M) -5.000): 7.52E-01 and 7.79E-01 and 7.62E-01
TR-FRET dose-response, normalized signal (SI Fig 11) ([1]; Log[inhibitor] (M) -5.000): 6.05E-01 and 5.95E-01 and 6.36E-01
normalized TR-FRET ligand displacement signal, dose-response replicates (SI Fig 6) ([1]; Log[inhibitor] (M) -5.301): 8.20E-01 and 8.88E-01 and 8.92E-01
TR-FRET dose-response, normalized signal (SI Fig 11) ([1]; Log[inhibitor] (M) -5.301): 6.96E-01 and 7.22E-01 and 7.09E-01
normalized TR-FRET ligand displacement signal, dose-response replicates (SI Fig 6) ([1]; Log[inhibitor] (M) -5.601): 9.12E-01 (2×) and 9.52E-01
TR-FRET dose-response, normalized signal (SI Fig 11) ([1]; Log[inhibitor] (M) -5.601): 8.44E-01 and 7.94E-01 and 8.38E-01
normalized TR-FRET ligand displacement signal, dose-response replicates (SI Fig 6) ([1]; Log[inhibitor] (M) -5.904): 1.12E+00 and 9.84E-01 and 8.91E-01
TR-FRET dose-response, normalized signal (SI Fig 11) ([1]; Log[inhibitor] (M) -5.904): 8.92E-01 and 8.20E-01 and 8.24E-01
normalized TR-FRET ligand displacement signal, dose-response replicates (SI Fig 6) ([1]; Log[inhibitor] (M) -6.208): 9.97E-01 and 8.76E-01 and 9.90E-01
TR-FRET dose-response, normalized signal (SI Fig 11) ([1]; Log[inhibitor] (M) -6.208): 8.69E-01 and 8.29E-01 and 9.13E-01
normalized TR-FRET ligand displacement signal, dose-response replicates (SI Fig 6) ([1]; Log[inhibitor] (M) -6.509): 9.61E-01 and 1.04E+00 and 9.10E-01
TR-FRET dose-response, normalized signal (SI Fig 11) ([1]; Log[inhibitor] (M) -6.509): 9.27E-01 and 8.13E-01 and 9.47E-01
normalized TR-FRET ligand displacement signal, dose-response replicates (SI Fig 6) ([1]; Log[inhibitor] (M) -6.796): 1.04E+00 and 1.06E+00 and 1.01E+00
TR-FRET dose-response, normalized signal (SI Fig 11) ([1]; Log[inhibitor] (M) -6.796): 9.41E-01 and 8.80E-01 and 8.81E-01
normalized TR-FRET ligand displacement signal, dose-response replicates (SI Fig 6) ([1]; Log[inhibitor] (M) -7.108): 1.05E+00 and 9.51E-01 and 1.07E+00
TR-FRET dose-response, normalized signal (SI Fig 11) ([1]; Log[inhibitor] (M) -7.108): 8.72E-01 and 9.00E-01 and 8.74E-01
normalized TR-FRET ligand displacement signal, dose-response replicates (SI Fig 6) ([1]; Log[inhibitor] (M) -7.409): 8.85E-01 and 9.14E-01 and 8.87E-01
TR-FRET dose-response, normalized signal (SI Fig 11) ([1]; Log[inhibitor] (M) -7.409): 8.90E-01 and 8.97E-01 and 8.75E-01
normalized TR-FRET ligand displacement signal, dose-response replicates (SI Fig 6) ([1]; Log[inhibitor] (M) -7.710): 9.64E-01 (2×) and 8.88E-01
TR-FRET dose-response, normalized signal (SI Fig 11) ([1]; Log[inhibitor] (M) -7.710): 8.83E-01 and 8.58E-01 and 9.38E-01
normalized TR-FRET ligand displacement signal, dose-response replicates (SI Fig 6) ([1]; Log[inhibitor] (M) -8.000): 9.97E-01 and 1.02E+00 and 9.70E-01
TR-FRET dose-response, normalized signal (SI Fig 11) ([1]; Log[inhibitor] (M) -8.000): 9.01E-01 and 9.27E-01 and 9.34E-01
normalized TR-FRET ligand displacement signal, dose-response replicates (SI Fig 6) ([1]; Log[inhibitor] (M) -8.301): 9.79E-01 and 9.25E-01 and 8.62E-01
TR-FRET dose-response, normalized signal (SI Fig 11) ([1]; Log[inhibitor] (M) -8.301): 8.32E-01 and 8.76E-01 and 8.86E-01
normalized TR-FRET ligand displacement signal, dose-response replicates (SI Fig 6) ([1]; Log[inhibitor] (M) -8.602): 1.04E+00 and 9.88E-01 and 8.85E-01
TR-FRET dose-response, normalized signal (SI Fig 11) ([1]; Log[inhibitor] (M) -8.602): 8.91E-01 and 9.03E-01 and 9.02E-01
normalized TR-FRET ligand displacement signal, dose-response replicates (SI Fig 6) ([1]; Log[inhibitor] (M) -9.000): 9.73E-01 and 8.88E-01 and 1.05E+00
TR-FRET dose-response, normalized signal (SI Fig 11) ([1]; Log[inhibitor] (M) -9.000): 9.24E-01 and 8.78E-01 and 8.94E-01
normalized TR-FRET ligand displacement signal, dose-response replicates (SI Fig 6) ([1]; Log[inhibitor] (M) -9.301): 9.62E-01 and 9.69E-01 and 9.04E-01
TR-FRET dose-response, normalized signal (SI Fig 11) ([1]; Log[inhibitor] (M) -9.301): 9.15E-01 and 8.48E-01 and 8.61E-01
HsProRS % signal at 10 μM ([1]; no added proline/ATP (-), 10 μM): 61.2%
dose-response signal (normalized), SI Fig 8 ([2]; Log[inhibitor] (M) -5.000): 6.00E-01 and 6.56E-01 and 6.73E-01
dose-response signal (normalized), SI Fig 8 ([2]; Log[inhibitor] (M) -5.301): 9.19E-01 and 8.61E-01 and 8.50E-01
dose-response signal (normalized), SI Fig 8 ([2]; Log[inhibitor] (M) -5.601): 9.17E-01 and 9.92E-01 and 9.34E-01
dose-response signal (normalized), SI Fig 8 ([2]; Log[inhibitor] (M) -5.904): 9.34E-01 and 1.02E+00 and 9.14E-01
dose-response signal (normalized), SI Fig 8 ([2]; Log[inhibitor] (M) -6.208): 1.16E+00 and 1.11E+00 and 8.47E-01
dose-response signal (normalized), SI Fig 8 ([2]; Log[inhibitor] (M) -6.509): 1.03E+00 and 1.08E+00 and 9.82E-01
dose-response signal (normalized), SI Fig 8 ([2]; Log[inhibitor] (M) -6.796): 9.55E-01 and 9.28E-01 and 9.85E-01
dose-response signal (normalized), SI Fig 8 ([2]; Log[inhibitor] (M) -7.108): 9.16E-01 and 1.02E+00 and 1.03E+00
dose-response signal (normalized), SI Fig 8 ([2]; Log[inhibitor] (M) -7.409): 1.06E+00 and 1.03E+00 and 1.09E+00
dose-response signal (normalized), SI Fig 8 ([2]; Log[inhibitor] (M) -7.710): 8.76E-01 and 1.01E+00 and 9.98E-01
dose-response signal (normalized), SI Fig 8 ([2]; Log[inhibitor] (M) -8.000): 1.02E+00 and 1.09E+00 and 1.14E+00
dose-response signal (normalized), SI Fig 8 ([2]; Log[inhibitor] (M) -8.301): 1.04E+00 (2×) and 9.07E-01
dose-response signal (normalized), SI Fig 8 ([2]; Log[inhibitor] (M) -8.602): 1.06E+00 and 9.87E-01 and 1.02E+00
dose-response signal (normalized), SI Fig 8 ([2]; Log[inhibitor] (M) -9.000): 9.95E-01 and 1.10E+00 and 1.11E+00
dose-response signal (normalized), SI Fig 8 ([2]; Log[inhibitor] (M) -9.301): 9.71E-01 and 8.41E-01 and 1.04E+00

Reference: publication PMC9403976, “Elucidating the path to Plasmodium prolyl-tRNA synthetase inhibitors that overcome halofuginone resistance” (Nature Communications, 2022)
